This is an account of results in PMC8745223, “Novel 1,3,5-Triazinyl Aminobenzenesulfonamides Incorporating Aminoalcohol, Aminochalcone and Aminostilbene Structural Motifs as Potent Anti-VRE Agents, and Carbonic Anhydrases I, II, VII, IX, and XII Inhibitors” (International Journal of Molecular Sciences, 2021).

Values after ≈ are worked out from the molar mass of the structure shown.

One assay addresses T1, hCA II (Homo sapiens, UniProt P00918).
T1 construct: gene CA2; recombinant
As to the kind of experiment: stopped-flow CO2 hydration assay. It is filed as biochemical. The method, boiled down:
(§1)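 A stopped-flow method tracked CO2 hydration by recombinant human carbonic anhydrase for 10–100 s, using 0.2 mM phenol red (557 nm), 20 mM Hepes pH 7.5, 20 mM Na2SO4 and 1.7–17 mM CO2. Before the assay, enzyme and inhibitor (diluted to 0.005 nM in buffer) were preincubated for 15 min at room temperature. Initial rates came from at least six traces after subtraction of uncatalysed rates, and each value is the mean of three or more determinations. Ki was obtained by non-linear least-squares fitting with the Cheng–Prusoff equation.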

Another assay has as its target T2, hCA VII (Homo sapiens, UniProt P43166).
T2 construct: gene CA7; recombinant
The assay can be described thus: stopped-flow CO2 hydration assay. It is filed as biochemical. An outline of the steps:
as §1

The next assay concerns the target T3, hCA IX (Homo sapiens, UniProt Q16790).
T3 construct: gene CA9; recombinant
The assay can be described thus: stopped-flow CO2 hydration assay. It is filed as biochemical. An outline of the steps:
as §1

The next assay concerns the target T4, hCA I (Homo sapiens, UniProt P00915).
T4 construct: gene CA1; recombinant
The assay can be described thus: stopped-flow CO2 hydration assay. Format: biochemical. The method, boiled down: as §1

Assay [1] deals with T5, Enterococcus faecalis VRE 725 B.
T5 construct: VRE 725B (vanA clinical isolate)
As to the kind of experiment: organism not typed. The following applies: 24 h. More on the design: broth microdilution MIC in BHI, Alamar Blue read-out, 37 °C. Here is the method: The inhibition activity against enterococci was evaluated by the microtitration broth method according to the Clinical and Laboratory Standards Institute with some modifications. The compounds were dissolved in DMSO and serially diluted in Brain Hearth Infusion (BHI) to reach concentrations 256–2 µg/mL. […] The experiment was repeated at least three times. All the investigated compounds were tested on their anti-staphylococcal activity against three clinical isolates of methicillin-resistant Staphylococcus aureus (MRSA) and S. aureus ATCC 29213 as the reference and quality control strain. […] All the compounds were tested against Enterococcus faecalis ATCC 29212 as the reference strain and three isolates from American crows of vanA-carrying vancomycin-resistant E. faecalis (VRE), and the activities, expressed as minimum inhibitory concentrations (MICs), are listed in Table 3.

Assay [2] has as its system T6, Enterococcus faecalis VRE 368.
T6 construct: VRE 368 (vanA clinical isolate)
As to the kind of experiment: organism not typed. More on the design: broth microdilution MIC in BHI, Alamar Blue read-out, 37 °C. The following applies: 24 h. Here is the method:
(§2) The inhibition activity against enterococci was evaluated by the microtitration broth method according to the Clinical and Laboratory Standards Institute with some modifications. The compounds were dissolved in DMSO and serially diluted in Brain Hearth Infusion (BHI) to reach concentrations 256–2 µg/mL. […] The experiment was repeated at least three times. All the investigated compounds were tested on their anti-staphylococcal activity against three clinical isolates of methicillin-resistant Staphylococcus aureus (MRSA) and S. aureus ATCC 29213 as the reference and quality control strain.

The test system of assay [3] is T7, Enterococcus faecalis VRE 342 B.
T7 construct: VRE 342 B (vanA clinical isolate)
The assay can be described thus: organism not typed. More on the design: broth microdilution MIC in BHI, Alamar Blue read-out, 37 °C. The following applies: 24 h. Here is the method:
as §2

The test system of assay [4] is T8, E. faecalis ATCC 29212 (EF).
T8 construct: ATCC 29212
The assay can be described thus: microbe, parasite or virus in culture. The following applies: Enterococcus faecalis, ATCC29212, 24 h. More on the design: broth microdilution MIC in BHI, Alamar Blue read-out, 37 °C. Here is the method: as §2

A further assay has as its target T9, hCA XII (Homo sapiens, UniProt O43570).
T9 construct: gene CA12; recombinant
The assay can be described thus: stopped-flow CO2 hydration assay. It is filed as biochemical. The method, boiled down: as §1

T4 sequence (P00915 2-261): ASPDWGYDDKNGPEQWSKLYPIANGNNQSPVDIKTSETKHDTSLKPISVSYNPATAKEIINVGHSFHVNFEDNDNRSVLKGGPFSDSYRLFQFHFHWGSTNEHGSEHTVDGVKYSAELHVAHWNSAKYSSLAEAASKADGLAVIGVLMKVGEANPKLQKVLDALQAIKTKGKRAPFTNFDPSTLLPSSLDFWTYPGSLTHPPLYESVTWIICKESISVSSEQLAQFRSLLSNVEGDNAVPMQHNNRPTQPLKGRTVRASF
T2 sequence (P43166 whole entry): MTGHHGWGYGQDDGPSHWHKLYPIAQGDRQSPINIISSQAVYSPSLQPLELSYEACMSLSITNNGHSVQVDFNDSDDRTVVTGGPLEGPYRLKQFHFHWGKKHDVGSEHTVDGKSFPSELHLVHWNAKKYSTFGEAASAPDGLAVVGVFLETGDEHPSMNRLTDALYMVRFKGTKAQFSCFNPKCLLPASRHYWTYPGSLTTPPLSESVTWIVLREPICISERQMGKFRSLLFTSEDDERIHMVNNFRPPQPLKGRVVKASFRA
T9 sequence (O43570 25-354): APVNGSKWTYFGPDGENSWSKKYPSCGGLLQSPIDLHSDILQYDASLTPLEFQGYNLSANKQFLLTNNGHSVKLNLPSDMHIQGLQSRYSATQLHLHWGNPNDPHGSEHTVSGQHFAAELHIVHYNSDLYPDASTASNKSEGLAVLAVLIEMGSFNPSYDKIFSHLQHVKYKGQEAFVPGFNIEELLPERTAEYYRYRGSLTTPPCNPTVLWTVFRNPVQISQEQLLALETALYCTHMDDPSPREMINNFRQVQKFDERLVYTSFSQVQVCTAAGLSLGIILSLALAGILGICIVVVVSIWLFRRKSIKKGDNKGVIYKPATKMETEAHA

Turning to `NS(=O)(=O)c1ccc(Nc2nc(Cl)nc(NCCCO)n2)cc1` [compound 1, 1], the inhibition constant (Ki) at hCA II turned out to be 44.8 nM; on hCA VII it was 128 nM; on hCA IX, 229 nM; on hCA I it was 26.8 nM.
At hCA VII, `NS(=O)(=O)c1ccc(CNc2nc(Cl)nc(NCCCO)n2)cc1` [compound 5, 5] yielded an inhibitory constant (Ki) of 332 nM.
Turning to `NS(=O)(=O)c1ccc(CNc2nc(NCCCO)nc(Nc3ccc(C(=O)/C=C/c4ccccc4)cc3)n2)cc1` [compound 13, 13], the Ki on hCA II was 277 nM; at hCA VII it was 95.7 nM; on hCA IX, 4630 nM; at hCA I it was 1960 nM. Further, the MIC in assay [1] was 228 µM (≈ 128 µg/mL); in [2] it was 114 µM (≈ 63.8 µg/mL); in assay [3], 228 µM (≈ 128 µg/mL); in assay [4], 228 µM (≈ 128 µg/mL).
With `NS(=O)(=O)c1ccc(CNc2nc(NCCCO)nc(Nc3ccc(C(=O)/C=C/c4ccccc4O)cc3)n2)cc1` [compound 14, 14], the inhibition constant Ki on hCA II stood at 35.4 nM; at hCA VII, 180 nM; at hCA IX it was 623 nM; on hCA I, 5400 nM. Moreover, the MIC is above 444 µM in assay [1], 111 µM (≈ 63.9 µg/mL) in assay [2], 111 µM (≈ 63.9 µg/mL) in assay [3] and 111 µM (≈ 63.9 µg/mL) in [4].
`NS(=O)(=O)c1ccc(CNc2nc(NCCCO)nc(Nc3ccc(C(=O)/C=C/c4ccc(O)cc4)cc3)n2)cc1` [compound 16, (E)-4-[({4-({4-[3-(4-Hydroxyphenyl)acryloyl]phenyl}amino)-6-[(3-hydroxypropyl)amino]-1,3,5-triazin-2-yl}amino)methyl]benzenesulfonamide]: the inhibition constant Ki at hCA II amounted to 36 nM; on hCA VII, 201 nM; on hCA IX, 161 nM; at hCA I it was 800 nM. Also, the MIC in [1], in assay [2], in [3] and in [4] was above 444 µM throughout.
Consider `NS(=O)(=O)c1ccc(CCNc2nc(Cl)nc(NCCCO)n2)cc1` [compound 18, 18], for which the MIC stood at 661 µM (≈ 256 µg/mL) in assay [1], 661 µM (≈ 256 µg/mL) in assay [2], 330 µM (≈ 128 µg/mL) in assay [3] and 330 µM (≈ 128 µg/mL) in assay [4]. This molecule yielded a Ki on hCA VII of 75.7 nM.
Take `NS(=O)(=O)c1ccc(CCNc2nc(Cl)nc(NCC(O)CO)n2)cc1` (centres unmarked) [compound 19, 19]: the MIC in assay [1], in assay [2], in [3] and in [4] was above 635 µM each time. Moreover, the Ki on hCA VII is 40.7 nM.
`NS(=O)(=O)c1ccc(CCNc2nc(NCCCO)nc(Nc3ccc(C(=O)/C=C/c4ccccc4O)cc3)n2)cc1` [compound 22, 22]: the Ki at hCA II is 939 nM; at hCA VII it was 283 nM; at hCA IX it was above 10000 nM; at hCA I, 7700 nM. For the same molecule, the MIC in [1], in assay [2], in assay [3] and in assay [4] was 108 µM (≈ 63.7 µg/mL) in each case.
Turning to `NS(=O)(=O)c1ccc(CCNc2nc(Nc3ccc(O)cc3)nc(Nc3ccc(C(=O)/C=C/c4ccccc4O)cc3)n2)cc1` [compound 24, 24], the Ki on hCA II came out at 63.8 nM; on hCA VII it was 281 nM; on hCA IX, 227 nM; at hCA I, 5010 nM. In addition, the MIC is 102 µM (≈ 63.6 µg/mL) in assay [1], 51.3 µM (≈ 32 µg/mL) in assay [2], 51.3 µM (≈ 32 µg/mL) in [3] and 51.3 µM (≈ 32 µg/mL) in assay [4].
In the case of `NS(=O)(=O)c1ccc(CCNc2nc(NCCCO)nc(Nc3ccc(C(=O)/C=C/c4cccc(O)c4)cc3)n2)cc1` [compound 25, (E)-4-[2-({4-({4-[3-(3-Hydroxyphenyl)acryloyl]phenyl}amino)-6-[(3-hydroxypropyl)amino]-1,3,5-triazin-2-yl}amino)ethyl]benzenesulfonamide], the Ki was 4130 nM at hCA II, 186 nM on hCA VII, above 10000 nM at hCA IX and 7490 nM at hCA I. Besides, the MIC in assay [1] worked out at 108 µM (≈ 63.7 µg/mL); in assay [2], 27.1 µM (≈ 16 µg/mL); in assay [3], 27.1 µM (≈ 16 µg/mL); in assay [4], 27.1 µM (≈ 16 µg/mL).
As for `NS(=O)(=O)c1ccc(CCNc2nc(Nc3ccc(O)cc3)nc(Nc3ccc(C(=O)/C=C/c4cccc(O)c4)cc3)n2)cc1` [compound 26, (E)-4-[2-({4-({4-[3-(3-Hydroxyphenyl)acryloyl]phenyl}amino)-6-[(4-hydroxyphenyl)amino]-1,3,5-triazin-2-yl}amino)ethyl]benzenesulfonamide], the inhibition constant Ki on hCA II was 1340 nM; at hCA VII it was 42.1 nM; at hCA IX, above 10000 nM; on hCA I it was 6630 nM. Also, the MIC in assay [1] is 51.3 µM (≈ 32 µg/mL); in assay [2], 25.6 µM (≈ 16 µg/mL); in [3], 51.3 µM (≈ 32 µg/mL); in assay [4], 51.3 µM (≈ 32 µg/mL).
Consider `NS(=O)(=O)c1ccc(CCNc2nc(NCCCO)nc(Nc3ccc(C(=O)/C=C/c4ccc(O)cc4)cc3)n2)cc1` [compound 27, (E)-4-[2-({4-({4-[3-(4-Hydroxyphenyl)akryloyl]phenyl}amino)-6-[(3-hydroxypropyl)amino]-1,3,5-triazin-2-yl}amino)ethyl]benzenesulfonamide], for which the inhibitory constant (Ki) on hCA II is 28.8 nM; on hCA VII it was 459 nM; on hCA IX, above 10000 nM; on hCA I, 8960 nM. The MIC was 434 µM (≈ 256 µg/mL) in assay [1], above 434 µM in assay [2], above 434 µM in assay [3] and above 434 µM in assay [4].
With `NS(=O)(=O)c1ccc(CCNc2nc(Nc3ccc(O)cc3)nc(Nc3ccc(C(=O)/C=C/c4ccc(O)cc4)cc3)n2)cc1` [compound 29, (E)-4-[2-({4-({4-[3-(4-Hydroxyphenyl)acryloyl]phenyl}amino)-6-[(4-hydroxyphenyl)amino]-1,3,5-triazin-2-yl}amino)ethyl]benzenesulfonamide], the Ki was 730 nM at hCA II, 88.6 nM on hCA VII, above 10000 nM on hCA IX and 5810 nM at hCA I. Further, the MIC came out at 51.3 µM (≈ 32 µg/mL) in assay [1], 102 µM (≈ 63.6 µg/mL) in assay [2], 25.6 µM (≈ 16 µg/mL) in assay [3] and 25.6 µM (≈ 16 µg/mL) in [4].
Turning to `NS(=O)(=O)c1ccc(CCNc2nc(NCC(O)CO)nc(Nc3ccc(/C=C/c4ccc(O)cc4)cc3)n2)cc1` (centres unmarked) [compound 42, (E)-4-{2-[(4-[(2,3-Dihydroxypropyl)amino]-6-{[4-(4-hydroxystyryl)phenyl]amino}-1,3,5-triazin-2-yl)amino]ethyl}benzenesulfonamide], the Ki at hCA II was 96.3 nM; at hCA XII it was 9.7 nM; at hCA IX, 258 nM; on hCA I, 43.5 nM. For the same molecule, the MIC is 221 µM (≈ 128 µg/mL) in [1], 221 µM (≈ 128 µg/mL) in assay [2], 110 µM (≈ 63.5 µg/mL) in assay [3] and 55.4 µM (≈ 32 µg/mL) in assay [4].

As usually defined, the Ki is a dissociation constant, usually derived from enzyme kinetics or from competition with a known ligand.
